Where a name gives a salt, the structure may show the parent alone.
Experiments:
[1] = test system: rat; test: standard rat tail flick assay; format: in vivo; conditions: suspension in 20% PEG
Method: The assay was the standard rat tail flick assay. Test agents were administered intravenously as suspensions in 20% PEG.

[2] = test system: delta receptors; test: binding to delta receptors relative to mu opiate receptor; conditions: delta versus mu opiate receptor
[3] = test system: kappa receptors; test: binding to kappa receptors relative to mu opiate receptor; conditions: kappa versus mu opiate receptor

Molecule: NC(Cc1ccc(O)cc1)C(=O)NC1CCCCNC(=O)C(Cc2ccccc2)NC(=O)C(Cc2c[nH]c3ccccc23)NC1=O [CYT-1010 Aspartate, H-Tyr-c-[D-Lys-Trp-Phe]]
- Activity % MPE Ave ([1]; IV dose 2 mg/kg, listed as Aspartate, 2 mg/kg): 7.4%

Molecule: NC(Cc1ccc(O)cc1)C(=O)NC1CCCCNC(=O)C(Cc2ccccc2)NC(=O)C(Cc2c[nH]c3ccccc23)NC1=O [CYT-1010 Free Base, H-Tyr-c-[D-Lys-Trp-Phe]]
- Activity % MPE Ave ([1]; IV dose 2 mg/kg, listed as Free Base, 2 mg/kg): 77.7%
- Activity % MPE Ave ([1]; IV dose 4 mg/kg, listed as Free Base, 4 mg/kg): 100.0%

Molecule: NC(Cc1ccc(O)cc1)C(=O)NC1CCCCNC(=O)C(Cc2ccccc2)NC(=O)C(Cc2c[nH]c3ccccc23)NC1=O [CYT-1010 Acetate, H-Tyr-c-[D-Lys-Trp-Phe]]
- Activity % MPE Ave ([1]; IV dose 2 mg/kg, listed as Acetate, 2 mg/kg): 50.0%
- Activity % MPE Ave ([1]; IV dose 4 mg/kg, listed as Acetate, 4 mg/kg): 83.3%

Molecule: NC(Cc1ccc(O)cc1)C(=O)NC1CCCCNC(=O)C(Cc2ccccc2)NC(=O)C(Cc2c[nH]c3ccccc23)NC1=O [CYT-1010 TFA, H-Tyr-c-[D-Lys-Trp-Phe]]
- Activity % MPE Ave ([1]; IV dose 4 mg/kg, listed as TFA, 4 mg/kg): 25.4%
- Activity % MPE Ave ([1]; IV dose 8 mg/kg): 71.2%

Molecule: H-Tyr-Pro-Trp-Phe-NH2 [SEQ ID NO:1]
- weaker binding to delta receptors (selectivity for mu opiate receptor) [2]: over 4000 fold
- weaker binding to kappa receptors (selectivity for mu opiate receptor) [3]: over 15,000 fold

Molecule: NC(Cc1ccc(O)cc1)C(=O)NC1CCCCNC(=O)C(Cc2ccccc2)NC(=O)C(Cc2c[nH]c3ccccc23)NC1=O [CYT-1010 HCL, H-Tyr-c-[D-Lys-Trp-Phe]]
- Activity % MPE Ave ([1]; IV dose 4 mg/kg, listed as HCL, 4 mg/kg): 0.0%

Molecule: NC(Cc1ccc(O)cc1)C(=O)NC1CCCCNC(=O)C(Cc2ccccc2)NC(=O)C(Cc2c[nH]c3ccccc23)NC1=O [CYT-1010 Lactate, H-Tyr-c-[D-Lys-Trp-Phe]]
- Activity % MPE Ave ([1]; IV dose 2 mg/kg, listed as Lactate, 2 mg/kg): 1.4%

Source: patent US20210277057A1, “AD[…]-OPIATE RECEPTOR PEPTIDE COMPOUNDS” (Cytogel Pharma, LLC, priority 2009, published 2021)
